Laboratory results as given in patent publication US20160263087A1, “NOVEL 4-(INDOL-3-YL)-PYRAZOLE DERIVATIVES, PHARMACEUTICAL COMPOSITIONS AND METHODS FOR USE” (ITEOS THERAPEUTICS, priority 2013, published 2016).
pIC50: −log10 of the molar value.

Assays:
[1] = target: T1, human TDO2 (Homo sapiens, UniProt P48775); assay: Assay for TDO2 enzymatic activity determination; format: biochemical; parameters: made in house; conditions: human recombinant TDO2, L-Trp 1 mM, room temperature, one hour, kynurenine absorbance at 480 nm
T1 sequence (P48775 whole entry): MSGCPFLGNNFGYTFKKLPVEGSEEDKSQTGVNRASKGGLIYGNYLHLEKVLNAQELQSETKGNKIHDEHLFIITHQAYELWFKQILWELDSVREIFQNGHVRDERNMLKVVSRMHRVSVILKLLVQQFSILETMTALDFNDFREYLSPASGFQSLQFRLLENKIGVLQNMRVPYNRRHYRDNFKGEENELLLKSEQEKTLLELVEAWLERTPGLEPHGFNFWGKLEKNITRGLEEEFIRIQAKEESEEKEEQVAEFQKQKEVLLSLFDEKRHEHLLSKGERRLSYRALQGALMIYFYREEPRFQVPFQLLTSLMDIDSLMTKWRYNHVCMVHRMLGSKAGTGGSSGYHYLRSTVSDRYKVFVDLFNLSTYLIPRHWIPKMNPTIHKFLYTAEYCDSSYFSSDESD
Experimental: To measure the TDO2 activity, the reaction mixture contained (final concentrations) potassium phosphate buffer (50 mM, pH 7.5), ascorbic acid (0.25 M), methylene blue (0.125 μM), catalase (40 units/mL, from bovine liver, Sigma), and human recombinant TDO2 enzyme (prepared as described in Dolusic et al. J. Med. Chem.; 2011, 54, 5320-5334; 0.9 μg) without or with the compounds of the present invention at the indicated concentrations (total volume 112.5 μL). The reaction was initiated by the addition of 37.5 μL of L-Trp (final concentration 1 mM) at room temperature. The reaction was conducted at room temperature during one hour and stopped by the addition of 30 μL of 30% (w/v) trichloroacetic acid.
To convert N-formylkynurenine into kynurenine, the reaction mixture was incubated at 65° C. for 30 min. Then 150 μL of the reaction mixture was mixed with 120 μL of 2.5% (w/v) 4-(dimethylamino)-benzaldehyde in acetic acid and incubated for 5 min at room temperature. Kynurenine concentrations were determined by measuring the absorbance at 480 nm. A standard curve was made with pure kynurenine. The TDO activity was measured as described above using ten serial concentrations of the compounds of the present invention. Data were fitted using the Prism software (GraphPad Software, Inc.).

[2] = target: T1, human TDO2; assay: Cellular assay for TDO2 activity, hTDO2-overexpressing P815 cells; format: cell-based; parameters: expressed in transfected cells; host or cells: murine mastocytoma P815 cells; conditions: murine mastocytoma P815 cells overexpressing hTDO2, overnight incubation, kynurenine absorbance at 480 nm
Experimental: (§1) The assay was performed in 96-well flat bottom plates seeded with murine mastocytoma P815 cells overexpressing hTDO2 (prepared as described in Pilotte et al., PNAS, 2012, 109(7), 2497-2502), at a concentration of 5×10^4 cells/well in a final volume of 200 μL. To determine TDO or IDO activity, the cells were incubated overnight at 37° C. at 5% CO2 in IMDM (Invitrogen) supplemented with 2% FBS and 2% penicillin/streptomycin in the presence of the compounds of the present invention, at different concentrations.
(§2) The plates were then centrifuged 5 min at 1000 rpm, and 100 μL of the supernatant were collected in a conical plate, 30 uL of TCA 30% were added and a further centrifugated at 3000×g for 10 minutes. 100 μL of the supernatant were collected in a flat bottomed plate and 100 μL of 2% (w/v) 4-(dimethylamino)-benzaldehyde in acetic acid and incubated for 5 min at room temperature. Kynurenine concentrations were determined by measuring the absorbance at 480 nm. A standard curve was made with pure kynurenine. The TDO activity was measured as described above using ten serial concentrations of the compounds of the present invention. Data were fitted using the Prism software (GraphPad Software, Inc.).

[3] = target: T1, human TDO2; assay: Cellular assay for TDO2 activity, A172 cells naturally expressing hTDO2; format: cell-based; parameters: expressed in transfected cells; host or cells: murine mastocytoma P815 cells; conditions: A172 cells naturally expressing hTDO2, overnight incubation, kynurenine absorbance at 480 nm
Experimental: as §1, with “A172 cells, naturally expressing” for “P815 cells overexpressing”, “Tilman” for “Pilotte”, “Mol Cancer, 2007, 17(6), 80),” for “PNAS, 2012, 109(7), 2497-2502),”, “1.25×10^4” for “5×10^4”, “TDO,” for “TDO or IDO activity,”
as §2

[4] = target: T2, TDO2 (Mus musculus, UniProt P48776); assay: Pharmacodynamic assay for TDO2 in vivo activity: increase of blood tryptophan levels in mice; conditions: for increase of circulating Tryptophan: plasma after two hours, vs vehicle; for Tryptophan concentration in plasma (average ± standard error of the mean): two hours, LC-MS-MS
T2 construct: from tissue; host or cells: live mice (whole animal; plasma tryptophan read-out)
T2 sequence (P48776 whole entry): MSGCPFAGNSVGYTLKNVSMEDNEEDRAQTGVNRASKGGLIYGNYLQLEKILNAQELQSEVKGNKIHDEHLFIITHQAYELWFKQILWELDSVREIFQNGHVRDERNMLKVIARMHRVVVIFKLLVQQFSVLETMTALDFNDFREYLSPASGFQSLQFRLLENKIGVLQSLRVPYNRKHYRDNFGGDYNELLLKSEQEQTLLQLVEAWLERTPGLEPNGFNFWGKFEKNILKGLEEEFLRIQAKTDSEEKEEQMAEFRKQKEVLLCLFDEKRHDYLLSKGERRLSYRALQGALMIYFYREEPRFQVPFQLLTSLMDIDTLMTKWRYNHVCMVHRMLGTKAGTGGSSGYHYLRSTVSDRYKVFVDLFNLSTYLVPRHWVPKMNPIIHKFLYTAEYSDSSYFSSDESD
Experimental: The compounds of the present invention increase the amount of Tryptophan in mouse blood.
Briefly, mice were treated with either a suspension of one of the compounds of the present invention in 0.5% HPMC K4M/0.25% Tween 20 at different doses (30, 60 and 100 mg/kg), or with a vehicle control (0.5% HPMC K4M/0.25% Tween 20), by the oral route by gavage (dosing volume 5 mL/kg, 10 mice per group). After two hours, blood was harvested, plasma was prepared and the amount of Tryptophan present was determined by LC-MS-MS (HPLC column Unison UK-Phenyl, 75×4.6, 3 μm, flow rate 0.8 mL/min, 8 minutes gradient from 95% water+0.1% formic acid/5% Acetonitrile+0.1% formic acid to 5% water+0.1% formic acid/95% Acetonitrile+0.1% formic acid, retention time 2.4 min; API4000 MS-MS system from AB Sciex, ESI+ mode, parent ion 205.1, daughter ion 146.1).

SMILES	pIC50 [1]	pIC50 [2]	also measured
NC(=O)C(O)Cn1cc(-c2c[nH]c3cc(F)ccc23)cn1 (stereo not shown) [Compound 37, 3-(4-(6-fluoro-1H-indol-3-yl)-1H-pyrazol-1-yl)-2-hydroxypropanamide]	5.00 to 6.00	> 6.00	
Fc1ccc2c(-c3cnn(CC4CCNCC4)c3)c[nH]c2c1 [Compound 43, 6-fluoro-3-(1-(piperidin-4-ylmethyl)-1H-pyrazol-4-yl)-1H-indole]			pIC50 [3]: > 6.00
OC1(Cn2cc(-c3c[nH]c4cc(F)ccc34)cn2)CCOCC1 [Compound 59, 4-((4-(6-fluoro-1H-indol-3-yl)-1H-pyrazol-1-yl)methyl)tetrahydro-2H-pyran-4-ol]	5.00 to 6.00	5.00 to 6.00	
NC(=O)[C@H]1CC[C@H](n2cc(-c3c[nH]c4cc(F)ccc34)cn2)CC1 [Compound 67, (1R,4R)-4-(4-(6-fluoro-1H-indol-3-yl)-1H-pyrazol-1-yl)cyclohexanecarboxamide]		5.00 to 6.00	
OC1CCC(n2cc(-c3c[nH]c4cc(F)ccc34)cn2)CC1 [Compound 68, (1R,4R)-4-(4-(6-fluoro-1H-indol-3-yl)-1H-pyrazol-1-yl)cyclohexanol]	5.00 to 6.00	> 6.00	
Cc1nn(C)cc1-c1c[nH]c2cc(F)ccc12 [Compound 75, 3-(1,3-dimethyl-1H-pyrazol-4-yl)-6-fluoro-1H-indole]	5.00 to 6.00	> 6.00	
Cn1ncc(-c2c[nH]c3ccccc23)c1C(F)(F)F [Compound 77, 3-(1-methyl-5-(trifluoromethyl)-1H-pyrazol-4-yl)-1H-indole]	4.00 to 5.00	5.00 to 6.00	
COCC(=O)N1CCC(n2cc(-c3c[nH]c4cc(F)ccc34)cn2)CC1 [Compound 85, 1-(4-(4-(6-fluoro-1H-indol-3-yl)-1H-pyrazol-1-yl)piperidin-1-yl)-2-methoxyethanone]			pIC50 [3]: > 6.00
CC(=O)N1CCC(n2cc(-c3c[nH]c4cc(F)ccc34)cn2)CC1 [Compound 89, 1-(4-(4-(6-fluoro-1H-indol-3-yl)-1H-pyrazol-1-yl)piperidin-1-yl)ethanone]			increase of circulating Tryptophan ([4]; 30 mg/kg oral gavage, p<0.05): 26%; Tryptophan concentration in plasma (average ± standard error of the mean) ([4]; 30 mg/kg oral gavage): 25126 ng/mL; Tryptophan concentration in plasma (average ± standard error of the mean) ([4]; 60 mg/kg oral gavage): 28452 ng/mL; increase of circulating Tryptophan ([4]; 100 mg/kg oral gavage, p<0.001): 43%; Tryptophan concentration in plasma (average ± standard error of the mean) ([4]; 100 mg/kg oral gavage): 28374 ng/mL; increase of circulating Tryptophan ([4]; printed 30 mg/kg (second mention, p<0.001), oral gavage): 43%; melting point: 183.2 to 184.5 °C
CN(C)C(=O)N1CCC(n2cc(-c3c[nH]c4cc(F)ccc34)cn2)CC1 [Compound 90, 4-(4-(6-fluoro-1H-indol-3-yl)-1H-pyrazol-1-yl)-N,N-dimethylpiperidine-1-carboxamide]			melting point: 223 to 224.6 °C
CN1CCC(n2cc(-c3c[nH]c4cc(F)ccc34)cn2)CC1 [Compound 91, 6-fluoro-3-(1-(1-methylpiperidin-4-yl)-1H-pyrazol-4-yl)-1H-indole]			melting point: 222.8 to 223.7 °C
CS(=O)(=O)CCCC(=O)N1CCC(n2cc(-c3c[nH]c4cc(F)ccc34)cn2)CC1 [Compound 103, 1-(4-(4-(6-fluoro-1H-indol-3-yl)-1H-pyrazol-1-yl)piperidin-1-yl)-4-(methylsulfonyl)butan-1-one]	4.00 to 5.00	5.00 to 6.00	
O=C(CCO)N1CCC(n2cc(-c3c[nH]c4cc(F)ccc34)cn2)CC1 [Compound 104, 1-(4-(4-(6-fluoro-1H-indol-3-yl)-1H-pyrazol-1-yl)piperidin-1-yl)-3-hydroxypropan-1-one]	5.00 to 6.00	> 6.00	
CS(=O)(=O)CCC(=O)N1CCC(n2cc(-c3c[nH]c4cc(F)ccc34)cn2)CC1 [Compound 105, 1-(4-(4-(6-fluoro-1H-indol-3-yl)-1H-pyrazol-1-yl)piperidin-1-yl)-3-(methylsulfonyl)propan-1-one]	5.00 to 6.00	> 6.00	
CS(=O)(=O)N1CCC(n2cc(-c3c[nH]c4cc(F)ccc34)cn2)CC1 [Compound 106, 6-fluoro-3-(1-(1-(methylsulfonyl)piperidin-4-yl)-1H-pyrazol-4-yl)-1H-indole]	5.00 to 6.00	> 6.00	pIC50 [3]: > 6.00
